Patent publication US20240124467A1, “FUSED PYRIMIDINE COMPOUNDS AS INHIBITORS OF MENIN-MLL INTERACTION” (Biomea Fusion, Inc., priority 2020, published 2024)
Where two headings read alike, the source gives them in different places.

How the values were obtained:
Type in all cases: cell-based
[1] = test system: MOLM-13; test: Cell proliferation inhibition (CellTiter-Glo), MOLM-13 cells; conditions: Homo sapiens, MOLM-13 (MLL-AF9)
Method: (§1) The present example evaluates the ability of compounds described herein, inhibitors of Menin/MLL interaction, to inhibit cell proliferation. The proliferation inhibitory effect was investigated in human MLL-leukemia cells selected on the bases of MLL fusion proteins and listed in the table below.
(§2) ATP is present in all metabolically active cells and is considered as a marker for cell viability and proliferation. The metabolic cell activity was determined using the CellTiter-Glo kit from Promega, an ATP monitoring system based on the production of luminescence by the reaction of ATP with added UltraGlo® recombinant luciferase (Kawano et al., 2016, PLOS One, 8:11(7):e0158888), according to the supplier's experimental recommendations. The assay is based on a 96 well plate format. All experiments were carried out in duplicate in one test occasion.
(§3) Test items were dissolved at 20 mM in DMSO with purity ≥99.9% (Sigma catalog no. D8418) and stored at −20° C. Cells were maintained in RPMI-1640 medium (Invitrogen catalog no. 618700) supplemented with 10% of Heat Inactivated FBS (Invitrogen catalog no. 10500) and 1% Pen-Strep (Invitrogen catalog no. 15140) and cultured at 37° C. in a humidified incubator with 5% CO2. Cell lines were grown in suspension and the cell density was maintained in a range of 5×10^4-1×10^6 viable cells/ml where possible. Cells were pelleted at 130 g×5 min.
(§4) Serial dilutions of compounds 1 to 3 in DMSO 100% were prepared starting from a 2.5 mM solutions (prepared by diluting 1:8 the 20 mM stock solution) to generate a 7 point concentration response curve (CRC). Seven concentrations of test compounds (e.g., 5.00×10^−6-1.67×10^−6-5.56×10^−7-1.85×10^−7-6.17×10^−8-2.06×10^−8-6.86×10^−9 M) were assessed in duplicate in an individual test occasion in parallel in the selected cell lines. KO-539 was used as a reference compound and tested in duplicate at seven similar concentrations. 100% of proliferation was represented by the untreated cells (0.2% DMSO).
(§5) Cell proliferation inhibition was monitored at both the following end points: Day 4 (T4) and Day 7 (T7). For the appropriate cell density during the exponential cell growth and re-supply with fresh compound solution at T4, cells were diluted (1:4) with fresh medium containing the compound concentration (1×).
(§6) For each plate to test, one 0.4 μL copy plate and four 0.3 μL copy plates were stamped into 96-well plates not treated for cell adhesion (Sarstedt—cat. no. 82.1581.001) by acoustic liquid handling (Echo) at a concentration which was 500 fold the final assay concentration. Stamped plates were stored at −20° C.
(§7) On Day 0, the day of the experiment cell line suspensions were counted by Cell Viability Analyser, Vi-CELL (Beckman Coulter AY15292), and diluted with fresh medium to obtain the following cell densities: K-562 500 c/ml, MOLM-13 1,000 c/ml, MV4-11 10,000 c/ml, OCI-AML-3 500 c/ml, and U-937 500-1,000 c/ml. 200 μL/well and 150 μL/well of cell suspension were added into the 0.4 μL/well and 0.3 μL/well compound plates, respectively. Cell plate containing 200 μL/well suspension were incubated at 37° C. in a humidified incubator with 5% CO2. From each well of the 150 μL/well cell assay plate, 100 μL were harvested and transferred into a 96-well Optiplate (Perkin Elmer, cat. no. 6005290). Cell viability was measured as described below.
(§8) On Day 4, 150p/well of fresh medium was added into a new 0.3 μL/well copy compound plates. From each well of the 200 μL/well cell assay plate, 100 μL was sampled for the cell viability measurement as described below. 50p was harvested and added to the 150p/well compound plate prepared as described in the first point to dilute 1:4 the cell suspension. The cell assay plate diluted and containing 200 μL/well suspension was incubated at 37° C. in a humidified incubator with 5% CO2.
(§9) On Day 4, 150p/well of fresh medium was added into a new 0.3 μL/well copy compound plates. […]

[2] = test system: K-562; test: Cell proliferation inhibition (CellTiter-Glo), K-562 cells; conditions: Homo sapiens, K-562 (BCR-ABL)
Method: as §1, §2, §3, §4, §5, §6, §7, §8, §9

[3] = test system: MV4-11; test: Cell proliferation inhibition (CellTiter-Glo), MV4-11 cells; conditions: Homo sapiens, MV4-11 (MLL-AF4)
Method: as §1, §2, §3, §4, §5, §6, §7, §8, §9

[4] = 96 h, Day 4, read-out: MOLM-13 Day IC50 μM (Day 4)*
[5] = K562, 96 h, Day 4, read-out: K-562 IC50 μM (Day 4)
[6] = 96 h, Day 4, read-out: MV-4:11 IC50 μM (Day 4)*
[7] = 168 h, Day 7, read-out: MOLM-13 Day IC50 μM (Day 7)*
[8] = K562, 168 h, Day 7, read-out: K-562 IC50 μM (Day 7)*
[9] = 168 h, Day 7, read-out: MV-4:11 IC50 μM (Day 7)*

| IC50 [1, 4] | IC50 [2, 5] | IC50 [3, 6] | IC50 [1, 7] | IC50 [2, 8] | IC50 [3, 9] | Structure (SMILES) |
| --- | --- | --- | --- | --- | --- | --- |
| 5.68 µM | > 10 µM | 3.88 µM | – | – | – | C=CC(=O)N[C@H]1CCN(c2cccc(CS(=O)(=O)Nc3ccc(-c4cc5c(N6CCOCC6)ncnc5[nH]4)cn3)c2)C1 [Compound B0700-536] |
| 0.607 µM | 2.89 µM | 0.371 µM | – | – | – | C=CC(=O)N[C@@H]1CCCN(Cc2ccnc(C(=O)NC3CC=C(c4cc5c(N6CCOCC6)ncnc5[nH]4)CC3)c2)C1 (stereo partly shown) [Compound B0700-527] |
| > 10 µM | > 10 µM | > 10 µM | – | – | – | C=CC(=O)N[C@H]1CCN(c2cccc(CS(=O)(=O)NC3CCN(c4nc5c(N6CCOCC6)ncnc5s4)CC3)c2)C1 [Compound B0700-537] |
| 0.329 µM | > 10 µM | 0.148 µM | – | – | – | C=CC(=O)N[C@H]1CCCN(c2cccc(CS(=O)(=O)Nc3ccc(-c4cc5c(N6CCOCC6)ncnc5[nH]4)cc3)c2)C1 [Compound B0700-540] |
| > 10 µM | > 10 µM | > 10 µM | – | – | – | C=CC(=O)N[C@@H]1CCCN(Cc2cccc(S(=O)(=O)NC3CCN(c4nc5c(N6CCOCC6)ncnc5s4)CC3)c2)C1 [Compound B0700-533] |
| 0.351 µM | 6.14 µM | 0.969 µM | – | – | – | C=CC(=O)N[C@@H]1CCCN(Cc2ccnc(C(=O)Nc3ccc(-c4cc5c(N6CCOCC6)ncnc5[nH]4)c(F)c3)c2)C1 [Compound B0700-529, (R)-4-((3-acrylamidopiperidin-1-yl)methyl)-N-(3-fluoro-4-(4-morpholino-7H-pyrrolo[2,3-d]pyrimidin-6-yl)phenyl)picolinamide] |
| > 10 µM | 2.89 µM | 8.92 µM | – | – | – | C=CC(=O)N[C@@H]1CCCN(Cc2ccnc(C(=O)NC3CCN(c4nc5c(N6CCOCC6)ncnc5s4)CC3)c2)C1 [Compound B0700-310, (R)-4-((3-acrylamidopiperidin-1-yl)methyl)-N-(1-(7-morpholinothiazolo[5,4-d]pyrimidin-2-yl)piperidin-4-yl)picolinamide] |
| > 10 µM | 5.3 µM | > 10 µM | – | – | – | C=CC(=O)N[C@@H]1CCCN(Cc2ccnc(C(=O)NC3CCN(c4nc5c(N6CCOCC6)ncnc5o4)CC3)c2)C1 [Compound B0700-518] |
| 0.35 µM | 0.74 µM | – | – | – | – | C=CC(=O)N[C@H]1CCCN(Cc2ccnc(C(=O)Nc3ccc(-c4cc5c(N6CCOCC6)ncnc5[nH]4)cc3)c2)C1 [Compound B0700-704] |

Further lines, the compound ahead of its results:

| Structure (SMILES) | IC50 [1, 4] | IC50 [2, 5] | IC50 [3, 6] | IC50 [1, 7] | IC50 [2, 8] | IC50 [3, 9] |
| --- | --- | --- | --- | --- | --- | --- |
| C=CC(=O)N[C@@H]1CCCN(c2cccc(C(C)S(=O)(=O)Nc3ccc(-c4cc5c(N6CCOCC6)ncnc5[nH]4)cc3)c2)C1 (stereo partly shown) [Compound B0700-545] | 1.07 µM | > 10 µM | 0.84 µM | – | – | – |
| Cc1cc(C)n2c1C=C1C=CC(CCC(=O)NCCCCN(C)C/C=C/C(=O)N[C@@H]3CCCN(Cc4ccnc(C(=O)Nc5ccc(-c6cc7c(N8CCOCC8)ncnc7[nH]6)cc5)c4)C3)=[N+]1[B-]2(F)F [Compound B0700-503] | 4.51 µM | 2.51 µM | 2.89 µM | – | – | – |
| C=CC(=O)N[C@@H]1CCCN(Cc2ccnc(C(=O)Nc3ccc(-c4[nH]c5ncnc(N6CCOCC6)c5c4C)cc3)c2)C1 [Compound B0700-528] | 0.462 µM | 1.18 µM | 0.464 µM | – | – | – |
| C=CC(=O)N[C@H]1CCCN(c2cccc(C(C)S(=O)(=O)Nc3ccc(-c4cc5c(N6CCOCC6)ncnc5[nH]4)cc3)c2)C1 (stereo partly shown) [Compound B0700-565] | 1.03 µM | > 10 µM | 0.274 µM | – | – | – |
| C=CC(=O)N[C@@H]1CCCN(Cc2ccnc(C(=O)Nc3ccc(-c4cc5c(C67CCOCC6C7)ncnc5[nH]4)cc3)c2)C1 (stereo partly shown) [Compound B0700-706] | 0.54 µM | 1.48 µM | 0.47 µM | – | – | – |
| C=CC(=O)N1CCC(Nc2ccnc(C(=O)Nc3ccc(-c4cc5c(N6CCOCC6)ncnc5[nH]4)cc3)c2)CC1 [Compound B0700-616, 4-((1-acryloylpiperidin-4-yl)amino)-N-(4-(4-morpholino-7H-pyrrolo[2,3-d]pyrimidin-6-yl)phenyl)picolinamide] | 0.154 µM | 0.744 µM | 0.218 µM | 0.157 µM | 0.636 µM | 0.17 µM |
| C=CC(=O)N[C@@H]1CCCN(Cc2ccnc(C(=O)Nc3ccc(-c4cc5c(N6CCC(O)CC6)ncnc5[nH]4)cc3)c2)C1 [Compound B0700-568] | 0.495 µM | > 10 µM | 0.419 µM | 0.924 µM | > 10 µM | 0.34 µM |
| C=CC(=O)N[C@@H]1CCCN(c2cccc([C@@H](C)S(=O)(=O)Nc3ccc(-c4cc5c(N6CCOCC6)ncnc5[nH]4)cc3)c2)C1 [Compound B0700-546] | 3.59 µM | > 10 µM | 1.75 µM | – | – | – |
| C/C=C/S(=O)(=O)N[C@@H]1CCCN(Cc2ccnc(C(=O)Nc3ccc(-c4cc5c(N6CCOCC6)ncnc5[nH]4)cc3)c2)C1 [Compound B0700-550] | 0.276 µM | > 10 µM | 0.212 µM | – | – | – |
| C=CC(=O)N1CCC(N2CCN(S(=O)(=O)Nc3ccc(-c4cc5c(N6CCOCC6)ncnc5[nH]4)cc3)CC2)CC1 [Compound B0700-612, 4-(1-acryloylpiperidin-4-yl)-N-(4-(4-morpholino-7H-pyrrolo[2,3-d]pyrimidin-6-yl)phenyl)piperazine-1-sulfonamide] | 2.85 µM | > 10 µM | 1.4 µM | 2.39 µM | > 10 µM | 1.14 µM |
| C=CC(=O)N1CCC(N2CCN(C(=O)Nc3ccc(-c4cc5c(N6CCOCC6)ncnc5[nH]4)cc3)CC2)CC1 [Compound B0700-613, 4-(1-acryloylpiperidin-4-yl)-N-(4-(4-morpholino-7H-pyrrolo[2,3-d]pyrimidin-6-yl)phenyl)piperazine-1-carboxamide] | 0.632 µM | 6.04 µM | 0.495 µM | 0.477 µM | 11.2 µM | 0.47 µM |
| C=CC(=O)NC1CN(c2ccnc(CC(=O)Nc3ccc(-c4cc5c(N6CCOCC6)ncnc5[nH]4)cc3)n2)C1 [Compound B0700-323, N-(1-(2-(2-((4-(4-morpholino-7H-pyrrolo[2,3-d]pyrimidin-6-yl)phenyl)amino)-2-oxoethyl)pyrimidin-4-yl)azetidin-3-yl)acrylamide] | 3.67 µM | > 10 µM | 1.18 µM | – | – | – |
| [2H]C([2H])=C([2H])C(=O)N[C@@H]1CCCN(Cc2ccnc(C(=O)Nc3ccc(-c4cc5c(N6CCOCC6)ncnc5[nH]4)cc3)c2)C1 [Compound B0700-557, (R)-4-((3-(acrylamido-2,3,3-d3)piperidin-1-yl)methyl)-N-(4-(4-morpholino-7H-pyrrolo[2,3-d]pyrimidin-6-yl)phenyl)picolinamide] | 0.271 µM | 0.997 µM | – | – | – | – |
